# Experimental data published in US12377104B1, “Methods for treating a fatty liver disease” (Madrigal Pharmaceuticals, Inc., priority 2024, dated 2025).
# Test system: adults with biopsy-confirmed NASH
# Test: MAESTRO-NASH: adverse events, serious adverse events, malignancies
# [1] = 100 mg (n = 323), safety population
# Text: Safety end points included adverse events, biochemical assessments, and clinical assessments. Selected serious adverse events (including deaths, cardiovascular events, and potential drug-induced liver injury) were adjudicated by independent, external event-adjudication committees whose members were unaware of the trial-group assignments.
structure (smiles),measurement,setting,value
"CC(C)c1cc(Oc2c(Cl)cc(-n3nc(C#N)c(=O)[nH]c3=O)cc2Cl)n[nH]c1=O [Resmetirom, 2-(3,5-dichloro-4-((5-isopropyl-6-oxo-1,6-dihydropyridazin-3-yl)oxy)phenyl)-3,5-dioxo-2,3,4,5-tetrahydro-1,2,4-triazine-6-carbonitrile]","Adverse event leading to trial discontinuation before wk 52, number of patients",100 mg,22
same,"Adverse event leading to trial discontinuation during entire treatment period, number of patients",100 mg,25
same,"Adverse event leading to trial discontinuation during entire treatment period, percent of patients",100 mg,(7.7) percent
same,"Arthralgia, number of patients",100 mg,35
same,"Arthralgia, percent of patients",100 mg,(10.8) percent
same,"Back pain, number of patients",100 mg,27
same,"Back pain, percent of patients",100 mg,(8.4) percent
same,"Cancer reported, patients",100 mg,3.4%
same,"Covid-19, number of patients",100 mg,54
same,"Covid-19, percent of patients",100 mg,(16.7) percent
same,"Diarrhea, number of patients",100 mg,108
same,"Diarrhea, percent of patients",100 mg,(33.4) percent
same,"Fatal adverse event, number of patients",100 mg,2
same,"Fatal adverse event, percent of patients",100 mg,(0.6) percent
same,"Fatigue, number of patients",100 mg,26
same,"Fatigue, percent of patients",100 mg,(8.0) percent
same,"Grade 1: mild, number of patients",100 mg,66
same,"Grade 1: mild, percent of patients",100 mg,(20.4) percent
same,"Grade 2: moderate, number of patients",100 mg,183
same,"Grade 2: moderate, percent of patients",100 mg,(56.7) percent
same,"Grade 3 or higher: severe, number of patients",100 mg,47
same,"Grade 3 or higher: severe, percent of patients",100 mg,(14.6) percent
same,"Major adverse cardiovascular event, number of patients",100 mg,1
same,"Major adverse cardiovascular event, percent of patients",100 mg,(0.3) percent
same,"Nausea, number of patients",100 mg,61
same,"Nausea, percent of patients",100 mg,(18.9) percent
same,"Other cardiovascular event, number of patients",100 mg,1
same,"Other cardiovascular event, percent of patients",100 mg,(0.3) percent
same,"Pruritus, number of patients",100 mg,37
same,"Pruritus, percent of patients",100 mg,(11.5) percent
same,"Urinary tract infection, number of patients",100 mg,27
same,"Urinary tract infection, percent of patients",100 mg,(8.4) percent
same,"≥1 Adverse event attributed to resmetirom, number of patients",100 mg,134
same,"≥1 Adverse event attributed to resmetirom, percent of patients",100 mg,(41.5) percent
same,"≥1 Adverse event, number of patients",100 mg,296
same,"≥1 Adverse event, percent of patients",100 mg,(91.6) percent
same,"≥1 Serious adverse event attributed to resmetirom, number of patients",100 mg,0
same,"≥1 Serious adverse event, number of patients",100 mg,41
same,Malignancy: Basal cell carcinoma,100 mg (N = 323),3 (0.9) n (%)
same,Malignancy: Breast carcinoma,100 mg (N = 323),2 (0.6) n (%)
same,Malignancy: Malignant melanoma,100 mg (N = 323),1 (0.3) n (%)
same,Malignancy: Skin cancer (squamous cell),100 mg (N = 323),1 (0.3) n (%)
same,Patients with any malignancy,100 mg (N = 323),11 (3.4) n (%)
same,Patients with at least one TE-SAEs,100 mg (N = 323),41 (12.7) n (%)
same,SAE: Acute Gallstone-related disorders,100 mg (N = 323),3 (0.9) n (%)
same,SAE: COVID-19,100 mg (N = 323),1 (0.3) n (%)
same,SAE: COVID-19 pneumonia,100 mg (N = 323),0 n (%)
same,SAE: Cardiac disorders,100 mg (N = 323),3 (0.9) n (%)
same,SAE: Gastrointestinal disorders,100 mg (N = 323),7 (2.2) n (%)
same,SAE: General disorders and administration site conditions,100 mg (N = 323),5 (1.5) n (%)
same,SAE: Infections and infestations,100 mg (N = 323),5 (1.5) n (%)
same,"SAE: Injury, poisoning and procedural complications",100 mg (N = 323),8 (2.5) n (%)
same,SAE: Musculoskeletal and connective tissue disorders,100 mg (N = 323),1 (0.3) n (%)
same,SAE: Nervous system disorders,100 mg (N = 323),2 (0.6) n (%)
same,SAE: Post procedural haemorrhage,100 mg (N = 323),1 (0.3) n (%)
same,"SAE: Respiratory, thoracic and mediastinal disorders",100 mg (N = 323),4 (1.2) n (%)
same,Adverse event: Abdominal distension,[1],13 (4.0) no. (%)
same,Adverse event: Abdominal pain,[1],29 (9.0) no. (%)
same,Adverse event: Abdominal pain upper,[1],27 (8.4) no. (%)
same,Adverse event: Constipation,[1],28 (8.7) no. (%)
same,Adverse event: Cough,[1],18 (5.6) no. (%)
same,Adverse event: Decreased appetite,[1],16 (5.0) no. (%)
same,Adverse event: Dizziness,[1],19 (5.9) no. (%)
same,Adverse event: Gastrooesophageal reflux disease,[1],7 (2.2) no. (%)
same,Adverse event: Headache,[1],25 (7.7) no. (%)
same,Adverse event: Hypertension,[1],13 (4.0) no. (%)
same,Adverse event: Muscle spasms,[1],22 (6.8) no. (%)
same,Adverse event: Nasopharyngitis,[1],20 (6.2) no. (%)
same,Adverse event: Pain in extremity,[1],12 (3.7) no. (%)
same,Adverse event: Procedural pain,[1],9 (2.8) no. (%)
same,Adverse event: Rash,[1],21 (6.5) no. (%)
same,Adverse event: Sinusitis,[1],13 (4.0) no. (%)
same,Adverse event: Type 2 diabetes,[1],26 (8.0) no. (%)
same,Adverse event: Upper respiratory tract infection,[1],8 (2.5) no. (%)
same,Adverse event: Vomiting,[1],35 (10.8) no. (%)
same,drug-induced liver injury,in vivo,no incidence of drug-induced liver injury
same,severe diarrhea,in vivo,no episodes of severe diarrhea
same,median duration of diarrhea,independent of dose,15 to 20 days
